pEC50: −log10 of the molar value.
What was measured:
human TRPM8 = target: T1, human TRPM8 (Homo sapiens, UniProt Q7Z2W7); experiment: In vitro human TRPM8 fluorescence calcium flux assay (recombinant CHO cells, Fluo4-AM, FDSS6000); type: cell-based; settings: recombinant CHO cells expressing human TRPM8; menthol-related EC50, normalized to 100 μM menthol
T1 construct: expressed in transfected cells; host or cells: CHO (p658 mammalian expression vector)
Experimental: (§1) In Vitro Pig and Human TRPM8 Fluorescence Calcium Flux Assays
(§2) For functional expression of TRPM8, the full-length cDNA encoding human (NM_024080) and pig (XM_001927892.1) TRPM8 sequences were subcloned into p658 and pcDNA5/FRT/TO mammalian expression vectors, respectively. Engineered recombinant CHO cell lines expressing human or pig TRPM8 were generated. Culture media was Ham-F12 with 10% FCS for both lines, and for the pig cell line only 400 μg/ml hygromycin B and 30 μg/mL blasticidin were added as selection antibiotics (all reagents were obtained from Invitrogen, Fisher Scientific). Cells were grown in culture flasks up to 80% confluence where they were harvested using accutase (Sigma, MO, USA) to detach the cells by enzymatic dissociation and either seeded directly into assay plates or cryopreserved for future use.
(§3) For calcium flux assays, cells were plated into clear base poly-D-lysine coated 384-well plates (BD Biosciences, NJ USA) at a density of 15,000 cells per well in appropriate culture medium and grown overnight. The following day, all medium was removed then the cells were incubated with 2 μM of Fluo4-AM Dye (Molecular Probes) prepared in complete HBSS assay buffer containing 20 mM HEPES, 0.1% BSA, and 2.5 mM probenecid at room temperature for one hour. Following incubation, plates were inserted into a FDSS6000 instrument (Hamamatsu, Photonics, Japan) instrument, where cells were challenged with compounds of the formula (at varying concentrations) and intracellular calcium was measured kinetically for 3 min after addition.
(§4) This protocol allowed the determination of an EC50 value, from the sixteen-point dose response data, for each compound of the formula tested. Maximal fluorescence intensity achieved upon addition of 100 μM menthol (stock solution prepared in ethanol from solid, Sigma-Aldrich) was exported from the FDSS and further analyzed using IDBS XLFit 5. Data were normalized to the average 100 μM menthol response (maximum control wells) included in each plate. The dose response curves from the average of wells for each data point were analyzed by using nonlinear regression of sigmoidal dose response (formula 205). Finally, the (menthol-related) EC50 values (Half maximal effective concentration) were calculated with the best-fit dose curve determined by IDBS XLFit 5 software.

pig TRPM8 = target: T2, pig TRPM8 (Sus scrofa, UniProt F1SM15); experiment: In vitro pig TRPM8 fluorescence calcium flux assay (recombinant CHO cells, Fluo4-AM, FDSS6000); type: cell-based; settings: recombinant CHO cells expressing pig TRPM8; menthol-related EC50, normalized to 100 μM menthol
T2 construct: expressed in transfected cells; host or cells: CHO (pcDNA5/FRT/TO vector; hygromycin B and blasticidin selection)
T2 sequence (F1SM15 1-1104): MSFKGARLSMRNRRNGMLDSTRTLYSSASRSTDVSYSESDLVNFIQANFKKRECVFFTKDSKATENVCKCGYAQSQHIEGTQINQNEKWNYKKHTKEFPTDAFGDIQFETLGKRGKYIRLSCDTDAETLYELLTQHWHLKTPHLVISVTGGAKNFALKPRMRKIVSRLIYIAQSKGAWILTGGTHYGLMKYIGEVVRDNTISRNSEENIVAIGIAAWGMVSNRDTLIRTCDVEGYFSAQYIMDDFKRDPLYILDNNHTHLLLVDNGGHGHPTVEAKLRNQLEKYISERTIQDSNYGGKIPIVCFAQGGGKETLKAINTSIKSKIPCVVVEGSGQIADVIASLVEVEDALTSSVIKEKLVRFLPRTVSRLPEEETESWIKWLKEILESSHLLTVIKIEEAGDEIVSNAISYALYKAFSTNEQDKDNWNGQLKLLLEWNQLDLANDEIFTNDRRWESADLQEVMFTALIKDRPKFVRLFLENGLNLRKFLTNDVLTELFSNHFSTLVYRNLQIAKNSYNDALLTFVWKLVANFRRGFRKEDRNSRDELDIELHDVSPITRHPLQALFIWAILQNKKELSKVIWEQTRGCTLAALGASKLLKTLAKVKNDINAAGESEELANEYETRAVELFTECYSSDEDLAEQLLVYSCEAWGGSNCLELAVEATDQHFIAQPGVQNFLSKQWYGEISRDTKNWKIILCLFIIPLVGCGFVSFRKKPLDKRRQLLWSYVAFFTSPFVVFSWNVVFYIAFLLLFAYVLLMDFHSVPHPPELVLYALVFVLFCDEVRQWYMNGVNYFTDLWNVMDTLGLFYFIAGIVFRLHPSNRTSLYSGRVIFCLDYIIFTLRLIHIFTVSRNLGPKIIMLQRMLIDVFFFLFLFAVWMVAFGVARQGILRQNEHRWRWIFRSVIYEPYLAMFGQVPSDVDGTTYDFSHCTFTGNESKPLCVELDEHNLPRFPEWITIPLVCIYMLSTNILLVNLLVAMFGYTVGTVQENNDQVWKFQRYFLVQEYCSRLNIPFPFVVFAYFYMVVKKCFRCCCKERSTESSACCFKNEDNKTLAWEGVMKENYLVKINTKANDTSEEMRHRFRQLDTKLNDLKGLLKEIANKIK
Experimental: as §1, §2, §3, §4

T1 sequence (Q7Z2W7 whole entry): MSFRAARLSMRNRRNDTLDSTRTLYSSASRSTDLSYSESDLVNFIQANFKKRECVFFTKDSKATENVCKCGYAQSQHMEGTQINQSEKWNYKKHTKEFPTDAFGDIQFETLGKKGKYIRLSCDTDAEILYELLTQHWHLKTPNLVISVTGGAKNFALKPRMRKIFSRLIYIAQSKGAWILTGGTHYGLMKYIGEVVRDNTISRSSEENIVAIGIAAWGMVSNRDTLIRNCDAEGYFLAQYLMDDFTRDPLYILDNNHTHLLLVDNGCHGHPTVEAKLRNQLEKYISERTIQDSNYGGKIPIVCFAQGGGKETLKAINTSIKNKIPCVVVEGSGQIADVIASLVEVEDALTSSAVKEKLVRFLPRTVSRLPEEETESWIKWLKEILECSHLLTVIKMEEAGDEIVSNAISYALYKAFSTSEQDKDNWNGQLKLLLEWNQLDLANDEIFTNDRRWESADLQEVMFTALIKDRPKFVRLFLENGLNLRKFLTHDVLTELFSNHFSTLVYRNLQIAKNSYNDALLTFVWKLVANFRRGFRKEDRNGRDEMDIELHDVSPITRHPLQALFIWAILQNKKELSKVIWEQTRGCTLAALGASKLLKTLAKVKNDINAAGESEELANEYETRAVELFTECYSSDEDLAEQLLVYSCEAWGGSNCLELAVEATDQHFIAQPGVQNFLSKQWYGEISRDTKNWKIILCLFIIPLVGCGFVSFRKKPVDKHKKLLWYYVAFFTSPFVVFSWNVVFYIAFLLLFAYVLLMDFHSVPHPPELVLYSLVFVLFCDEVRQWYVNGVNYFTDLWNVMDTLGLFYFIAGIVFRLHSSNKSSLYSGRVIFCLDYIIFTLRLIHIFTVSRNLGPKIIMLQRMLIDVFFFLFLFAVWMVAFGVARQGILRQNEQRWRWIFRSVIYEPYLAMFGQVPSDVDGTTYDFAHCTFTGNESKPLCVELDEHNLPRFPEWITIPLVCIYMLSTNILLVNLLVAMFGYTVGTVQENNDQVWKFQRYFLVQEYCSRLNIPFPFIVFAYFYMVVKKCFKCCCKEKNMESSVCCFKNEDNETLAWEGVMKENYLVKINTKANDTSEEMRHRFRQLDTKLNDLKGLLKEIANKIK

pEC50 (human TRPM8) | pEC50 (pig TRPM8) | SMILES
8.32 | 8.74 | CC(C)[C@@H]1CC[C@@H](C)C[C@@]1(O)C(=O)NCC1(O)CCc2c(Cl)cccc21 (stereo partly drawn) [Example 144, (1S,2S,5R)-N-[(4-chloro-1-hydroxy-indan-1-yl)methyl]-1-hydroxy-2-isopropyl-5-methyl-cyclohexanecarboxamide]
6.51 | 7.33 | COc1ccc2c(c1)CCC2CNC(=O)[C@]1(O)C[C@H](C)CC[C@H]1C(C)C (stereo partly drawn) [Example 152, (1S,2S,5R)-1-hydroxy-2-isopropyl-N-[(5-methoxyindan-1-yl)methyl]-5-methyl-cyclohexanecarboxamide]
6.89 | 7.12 | Cc1[nH]c2ccccc2c1CCNC(=O)[C@]1(O)C[C@H](C)CC[C@H]1C(C)C [Example 153, (1S,2S,5R)-1-hydroxy-2-isopropyl-5-methyl-N-[2-(2-methyl-1H-indol-3-yl)ethyl]cyclohexanecarboxamide]
7.07 | 7.34 | COc1ccc2c(c1)OCC2CNC(=O)[C@]1(O)C[C@H](C)CC[C@H]1C(C)C (stereo partly drawn) [Example 154, (1S,2S,5R)-1-hydroxy-2-isopropyl-N-[(6-methoxy-2,3-dihydrobenzofuran-3-yl)methyl]-5-methyl-cyclohexanecarboxamide]
6.05 | 6.29 | CC(C)[C@@H]1CC[C@@H](C)C[C@@]1(O)C(=O)NCc1cccc(CO)c1 [Example 161, (1S,2S,5R)-1-hydroxy-N-[[3-(hydroxymethyl)phenyl]methyl]-2-isopropyl-5-methyl-cyclohexanecarboxamide]
6.48 | 6.43 | CC(C)[C@@H]1CC[C@@H](C)C[C@@]1(O)C(=O)NCc1cccc(O)c1 [Example 165, (1S,2S,5R)-1-hydroxy-N-[(3-hydroxyphenyl)methyl]-2-isopropyl-5-methyl-cyclohexanecarboxamide]
8.49 | 8.21 | CC(C)[C@@H]1CC[C@@H](C)C[C@@]1(O)C(=O)N[C@@H]1CCc2ccc(O)cc2C1 [Example 171, (1S,2S,5R)-1-hydroxy-N-[(2R)-7-hydroxytetralin-2-yl]-2-isopropyl-5-methyl-cyclohexanecarboxamide]
8.01 | 7.72 | CC(C)[C@@H]1CC[C@@H](C)C[C@@]1(O)C(=O)NCCc1cc(O)ccc1Br [Example 172, (1S,2S,5R)-N-[2-(2-bromo-5-hydroxy-phenyl)ethyl]-1-hydroxy-2-isopropyl-5-methyl-cyclohexanecarboxamide]
7.61 | 7.66 | CC(C)[C@@H]1CC[C@@H](C)C[C@@]1(O)C(=O)NCCc1ccc(O)cc1O [Example 173, (1S,2S,5R)-N-[2-(2,4-dihydroxyphenyl)ethyl]-1-hydroxy-2-isopropyl-5-methyl-cyclohexanecarboxamide]
7.12 | 7.62 | COc1cccc(C(F)(F)CNC(=O)[C@]2(O)C[C@H](C)CC[C@H]2C(C)C)c1 [Example 188, (1S,2S,5R)—N-[2,2-difluoro-2-(3-methoxyphenyl)ethyl]-1-hydroxy-2-isopropyl-5-methyl-cyclohexanecarboxamide]

More lines, now with the values behind:

SMILES | pEC50 (human TRPM8) | pEC50 (pig TRPM8)
CC(C)[C@@H]1CC[C@@H](C)C[C@@]1(O)C(=O)NC1CCC(F)(F)CC1 [Example 147, (1S,2S,5R)-N-(4,4-difluorocyclohexyl)-1-hydroxy-2-isopropyl-5-methyl-cyclohexanecarboxamide] | 5.94 | 6.05
CC(C)[C@@H]1CC[C@@H](C)C[C@@]1(O)C(=O)NCC(=O)c1sccc1Cl [Example 148, (1S,2S,5R)-N-[2-(3-chloro-2-thienyl)-2-oxo-ethyl]-1-hydroxy-2-isopropyl-5-methyl-cyclohexanecarboxamide] | 8.40 | 8.40
CC(C)[C@@H]1CC[C@@H](C)C[C@@]1(O)C(=O)NCC(=O)c1c[nH]c2ccccc12 [Example 150, (1S,2S,5R)-1-hydroxy-N-[2-(1H-indol-3-yl)-2-oxo-ethyl]-2-isopropyl-5-methyl-cyclohexanecarboxamide] | 8.40 | 8.40
CC(C)[C@@H]1CC[C@@H](C)C[C@@]1(O)C(=O)NCc1c[nH]c2ccccc12 [Example 151] | 6.73 | 6.90
CC(C)[C@@H]1CC[C@@H](C)C[C@@]1(O)C(=O)NCC(O)c1ccccc1F (stereo partly drawn) [Example 157, (1S,2S,5R)-N-[2-(2-fluorophenyl)-2-hydroxy-ethyl]-1-hydroxy-2-isopropyl-5-methyl-cyclohexanecarboxamide] | 8.08 | 8.33
CC(C)[C@@H]1CC[C@@H](C)C[C@@]1(O)C(=O)NC(CCO)c1cccc(O)c1 (stereo partly drawn) [Example 163, (1S,2S,5R)-1-hydroxy-N-[3-hydroxy-1-(3-hydroxyphenyl)propyl]-2-isopropyl-5-methyl-cyclohexanecarboxamide] | 6.18 | 6.03
CC(C)[C@@H]1CC[C@@H](C)C[C@@]1(O)C(=O)NCCc1ccc(O)c([N+](=O)[O-])c1 [Example 166, (1S,2S,5R)-1-hydroxy-N-[2-(4-hydroxy-3-nitro-phenyl)ethyl]-2-isopropyl-5-methyl-cyclohexanecarboxamide] | 7.78 | 7.82
CC(C)[C@@H]1CC[C@@H](C)C[C@@]1(O)C(=O)NCCCc1ccc(O)cc1 [Example 167, (1S,2S,5R)-1-hydroxy-N-[3-(4-hydroxyphenyl)propyl]-2-isopropyl-5-methyl-cyclohexanecarboxamide] | 7.23 | 7.04
CC(C)[C@@H]1CC[C@@H](C)C[C@@]1(O)C(=O)N[C@@H](C)CCc1ccc(O)cc1 [Example 168, (1S,2S,5R)-1-hydroxy-N-[(1S)-3-(4-hydroxyphenyl)-1-methyl-propyl]-2-isopropyl-5-methyl-cyclohexanecarboxamide] | 6.48 | 6.46
CC(C)[C@@H]1CC[C@@H](C)C[C@@]1(O)C(=O)NCCc1c[nH]c2ccc(O)cc12 [Example 169, (1S,2S,5R)-1-hydroxy-N-[2-(5-hydroxy-1H-indol-3-yl)ethyl]-2-isopropyl-5-methyl-cyclohexanecarboxamide] | 7.68 | 7.56
CC(C)[C@@H]1CC[C@@H](C)C[C@@]1(O)C(=O)N[C@@H](CO)Cc1ccc(O)cc1 [Example 170, (1S,2S,5R)-1-hydroxy-N-[(1R)-1-(hydroxymethyl)-2-(4-hydroxyphenyl)ethyl]-2-isopropyl-5-methyl-cyclohexanecarboxamide] | 7.43 | 7.22
CC(C)[C@@H]1CC[C@@H](C)C[C@@]1(O)C(=O)NC[C@H](O)c1ccccc1 [Example 178, (1S,2S,5R)-1-hydroxy-N-((2R)-2-hydroxy-2-phenylethyl)-2-isopropyl-5-methylcyclohexane-1-carboxamide] | 5.90 | 6.45
COCCOCCOCCOc1cccc(CCNC(=O)[C@]2(O)C[C@H](C)CC[C@H]2C(C)C)c1 [Example 185, (1S,2S,5R)-1-hydroxy-2-isopropyl-N-[2-[3-[2-[2-(2-methoxyethoxy)ethoxy]ethoxy]phenyl]ethyl]-5-methyl-cyclohexanecarboxamide] | 6.96 | 7.17

Reference: US20240124408A1 (Sanofi, priority 2020, published 2024)
